Laboratory results taken from ChEMBL document CHEMBL4507268 (2021).

Columns and labels:
Details in all cases: Compound concentration 1.0 uM
[1] = target: Serine/threonine-protein kinase Chk2 (Homo sapiens) (UniProt O96017)
[2] = target: T1, Tyrosine-protein kinase ZAP-70 (Homo sapiens) (UniProt P43403)
T1 sequence (whole entry): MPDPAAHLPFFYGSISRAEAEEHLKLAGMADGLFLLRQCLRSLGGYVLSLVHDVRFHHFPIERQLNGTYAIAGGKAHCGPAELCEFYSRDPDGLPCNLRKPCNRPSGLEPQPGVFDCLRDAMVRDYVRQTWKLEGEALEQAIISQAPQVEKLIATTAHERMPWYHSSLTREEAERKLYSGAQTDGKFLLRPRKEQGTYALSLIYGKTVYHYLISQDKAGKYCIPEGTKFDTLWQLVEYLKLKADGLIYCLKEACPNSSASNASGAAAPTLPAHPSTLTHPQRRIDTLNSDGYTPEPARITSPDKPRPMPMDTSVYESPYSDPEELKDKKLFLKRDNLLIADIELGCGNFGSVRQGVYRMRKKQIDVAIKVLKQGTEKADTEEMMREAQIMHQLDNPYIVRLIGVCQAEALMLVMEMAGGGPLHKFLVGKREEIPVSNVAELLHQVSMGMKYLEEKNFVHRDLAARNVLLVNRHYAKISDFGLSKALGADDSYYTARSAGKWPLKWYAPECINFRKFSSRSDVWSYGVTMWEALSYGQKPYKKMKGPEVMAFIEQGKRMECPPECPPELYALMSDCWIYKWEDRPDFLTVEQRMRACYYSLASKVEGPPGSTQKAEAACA

[3] = target: T2, Myosin light chain kinase (Homo sapiens) (UniProt Q32MK0)
T2 sequence (whole entry): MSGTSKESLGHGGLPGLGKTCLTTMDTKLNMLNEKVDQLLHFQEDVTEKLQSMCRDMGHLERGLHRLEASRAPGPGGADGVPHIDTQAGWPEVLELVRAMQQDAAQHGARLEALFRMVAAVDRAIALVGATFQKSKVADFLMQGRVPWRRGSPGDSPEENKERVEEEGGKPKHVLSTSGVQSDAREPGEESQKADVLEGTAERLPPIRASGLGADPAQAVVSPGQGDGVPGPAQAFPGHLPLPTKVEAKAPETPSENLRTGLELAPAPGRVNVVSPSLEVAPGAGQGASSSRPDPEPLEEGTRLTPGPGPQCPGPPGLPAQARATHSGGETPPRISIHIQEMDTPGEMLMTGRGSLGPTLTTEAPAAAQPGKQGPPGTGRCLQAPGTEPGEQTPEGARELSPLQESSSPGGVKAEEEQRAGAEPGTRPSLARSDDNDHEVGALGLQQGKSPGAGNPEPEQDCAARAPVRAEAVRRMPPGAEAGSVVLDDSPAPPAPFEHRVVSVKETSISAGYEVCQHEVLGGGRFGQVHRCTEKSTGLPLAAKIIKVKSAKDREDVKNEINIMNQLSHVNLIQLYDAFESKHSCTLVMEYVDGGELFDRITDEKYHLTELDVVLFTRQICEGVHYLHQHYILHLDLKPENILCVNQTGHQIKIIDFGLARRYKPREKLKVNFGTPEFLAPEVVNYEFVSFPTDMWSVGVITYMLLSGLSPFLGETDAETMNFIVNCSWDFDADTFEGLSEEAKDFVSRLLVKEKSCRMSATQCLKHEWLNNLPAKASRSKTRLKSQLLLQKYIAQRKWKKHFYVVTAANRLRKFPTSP

[4] = target: LIM domain kinase 2 (Homo sapiens) (UniProt P53671)
[5] = target: T3, Inhibitor of nuclear factor kappa-B kinase subunit epsilon (Homo sapiens) (UniProt Q14164)
T3 sequence (whole entry): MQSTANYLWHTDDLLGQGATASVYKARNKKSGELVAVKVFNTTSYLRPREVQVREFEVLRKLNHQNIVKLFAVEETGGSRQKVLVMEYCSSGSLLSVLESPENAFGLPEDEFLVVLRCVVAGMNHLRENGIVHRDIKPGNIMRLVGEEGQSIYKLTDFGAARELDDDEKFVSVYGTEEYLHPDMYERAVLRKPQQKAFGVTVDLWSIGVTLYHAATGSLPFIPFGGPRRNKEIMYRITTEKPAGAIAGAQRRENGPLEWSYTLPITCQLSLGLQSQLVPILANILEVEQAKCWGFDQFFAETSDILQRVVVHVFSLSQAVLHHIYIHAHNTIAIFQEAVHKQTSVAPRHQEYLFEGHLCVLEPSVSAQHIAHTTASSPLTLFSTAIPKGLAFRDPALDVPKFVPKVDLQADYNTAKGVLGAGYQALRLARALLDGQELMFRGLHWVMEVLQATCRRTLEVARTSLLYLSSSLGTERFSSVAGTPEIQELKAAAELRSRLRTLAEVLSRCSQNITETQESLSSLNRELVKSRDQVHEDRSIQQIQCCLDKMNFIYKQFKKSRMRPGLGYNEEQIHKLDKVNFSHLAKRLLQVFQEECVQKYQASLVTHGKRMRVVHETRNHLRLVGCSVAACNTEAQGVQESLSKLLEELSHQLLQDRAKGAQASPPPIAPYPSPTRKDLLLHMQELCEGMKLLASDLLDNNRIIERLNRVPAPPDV

[6] = target: Casein kinase I isoform gamma-2 (Homo sapiens) (UniProt P78368)
[7] = target: G protein-coupled receptor kinase 5 (Homo sapiens) (UniProt P34947)
[8] = target: Tyrosine-protein kinase CSK (Homo sapiens) (UniProt P41240)
[9] = target: Transcription initiation factor TFIID subunit 1-like (Homo sapiens) (UniProt Q8IZX4)

Measured: % residual kinase activity

Chain of Transcription initiation factor TFIID subunit 1-like (Homo sapiens) (Q8IZX4 whole entry): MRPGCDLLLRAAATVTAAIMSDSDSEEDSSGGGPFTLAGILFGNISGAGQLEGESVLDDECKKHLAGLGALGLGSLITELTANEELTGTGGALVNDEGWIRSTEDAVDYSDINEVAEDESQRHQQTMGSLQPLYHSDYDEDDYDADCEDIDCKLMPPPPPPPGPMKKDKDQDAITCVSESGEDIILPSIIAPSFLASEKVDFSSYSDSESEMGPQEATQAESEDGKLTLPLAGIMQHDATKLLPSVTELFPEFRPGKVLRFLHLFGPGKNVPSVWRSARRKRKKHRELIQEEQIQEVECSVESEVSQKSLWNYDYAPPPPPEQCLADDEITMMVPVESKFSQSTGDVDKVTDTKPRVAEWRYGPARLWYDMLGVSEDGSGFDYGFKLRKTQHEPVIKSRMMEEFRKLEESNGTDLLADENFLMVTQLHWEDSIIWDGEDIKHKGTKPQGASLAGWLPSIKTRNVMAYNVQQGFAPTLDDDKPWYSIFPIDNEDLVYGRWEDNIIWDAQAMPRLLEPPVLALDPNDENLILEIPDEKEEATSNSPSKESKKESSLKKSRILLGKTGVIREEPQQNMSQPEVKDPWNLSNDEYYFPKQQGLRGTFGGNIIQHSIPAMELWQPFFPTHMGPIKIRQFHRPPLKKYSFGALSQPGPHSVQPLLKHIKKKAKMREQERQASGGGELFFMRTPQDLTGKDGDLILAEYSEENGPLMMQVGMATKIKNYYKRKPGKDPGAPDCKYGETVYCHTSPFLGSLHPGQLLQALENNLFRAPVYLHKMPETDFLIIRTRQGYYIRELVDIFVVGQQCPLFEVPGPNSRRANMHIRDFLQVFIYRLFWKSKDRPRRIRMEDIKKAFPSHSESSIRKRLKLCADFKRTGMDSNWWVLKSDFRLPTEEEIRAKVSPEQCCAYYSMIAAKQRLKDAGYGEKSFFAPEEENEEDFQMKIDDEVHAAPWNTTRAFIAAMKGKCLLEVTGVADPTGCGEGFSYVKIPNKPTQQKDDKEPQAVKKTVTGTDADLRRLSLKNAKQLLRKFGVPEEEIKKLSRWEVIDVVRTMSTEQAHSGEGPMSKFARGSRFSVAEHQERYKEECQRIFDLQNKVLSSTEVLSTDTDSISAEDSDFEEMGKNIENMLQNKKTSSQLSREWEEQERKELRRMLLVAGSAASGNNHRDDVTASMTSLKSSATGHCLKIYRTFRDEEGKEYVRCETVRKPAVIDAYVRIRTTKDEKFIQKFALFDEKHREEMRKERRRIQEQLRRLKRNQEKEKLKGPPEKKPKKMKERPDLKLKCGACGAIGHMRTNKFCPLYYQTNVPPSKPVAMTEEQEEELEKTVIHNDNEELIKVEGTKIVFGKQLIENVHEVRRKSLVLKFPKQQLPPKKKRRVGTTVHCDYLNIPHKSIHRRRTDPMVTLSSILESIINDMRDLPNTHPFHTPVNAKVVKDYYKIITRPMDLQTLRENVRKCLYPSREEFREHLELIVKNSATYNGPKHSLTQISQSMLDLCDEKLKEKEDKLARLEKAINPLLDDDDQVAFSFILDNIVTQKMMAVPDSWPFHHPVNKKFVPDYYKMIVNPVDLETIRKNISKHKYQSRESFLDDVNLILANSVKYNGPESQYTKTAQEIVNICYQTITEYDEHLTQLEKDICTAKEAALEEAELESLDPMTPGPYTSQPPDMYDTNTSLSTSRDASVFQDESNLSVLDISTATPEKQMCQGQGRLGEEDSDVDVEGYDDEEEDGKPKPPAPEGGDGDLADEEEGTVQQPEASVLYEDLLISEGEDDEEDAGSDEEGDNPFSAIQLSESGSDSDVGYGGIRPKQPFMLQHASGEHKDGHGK
Chain of Casein kinase I isoform gamma-2 (Homo sapiens) (P78368 whole entry, looked up, canonical isoform): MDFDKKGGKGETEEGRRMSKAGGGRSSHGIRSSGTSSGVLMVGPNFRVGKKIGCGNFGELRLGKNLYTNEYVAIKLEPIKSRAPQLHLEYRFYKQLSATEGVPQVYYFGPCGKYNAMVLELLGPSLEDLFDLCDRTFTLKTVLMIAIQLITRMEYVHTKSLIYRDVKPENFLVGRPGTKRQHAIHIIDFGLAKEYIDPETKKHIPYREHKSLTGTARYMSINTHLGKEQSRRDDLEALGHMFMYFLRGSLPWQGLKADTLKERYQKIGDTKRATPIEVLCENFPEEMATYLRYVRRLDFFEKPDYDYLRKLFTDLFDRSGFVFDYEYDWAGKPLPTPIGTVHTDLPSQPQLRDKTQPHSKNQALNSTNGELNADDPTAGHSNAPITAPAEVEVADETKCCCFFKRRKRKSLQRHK
Chain of Tyrosine-protein kinase CSK (Homo sapiens) (P41240 2-450 limits assumed): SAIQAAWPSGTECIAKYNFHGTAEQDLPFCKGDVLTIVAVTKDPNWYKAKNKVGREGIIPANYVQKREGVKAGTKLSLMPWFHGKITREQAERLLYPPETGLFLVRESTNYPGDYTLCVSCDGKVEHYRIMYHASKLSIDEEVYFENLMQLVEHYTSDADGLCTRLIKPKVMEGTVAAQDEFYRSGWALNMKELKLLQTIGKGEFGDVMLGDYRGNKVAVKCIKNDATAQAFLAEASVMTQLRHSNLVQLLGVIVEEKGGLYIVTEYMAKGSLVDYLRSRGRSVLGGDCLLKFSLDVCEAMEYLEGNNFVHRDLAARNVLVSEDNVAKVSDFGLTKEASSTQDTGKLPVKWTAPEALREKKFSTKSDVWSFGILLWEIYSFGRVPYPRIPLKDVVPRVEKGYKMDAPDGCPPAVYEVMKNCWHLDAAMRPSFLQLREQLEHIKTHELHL
Chain of LIM domain kinase 2 (Homo sapiens) (P53671 whole entry, looked up, the tested form may be a part): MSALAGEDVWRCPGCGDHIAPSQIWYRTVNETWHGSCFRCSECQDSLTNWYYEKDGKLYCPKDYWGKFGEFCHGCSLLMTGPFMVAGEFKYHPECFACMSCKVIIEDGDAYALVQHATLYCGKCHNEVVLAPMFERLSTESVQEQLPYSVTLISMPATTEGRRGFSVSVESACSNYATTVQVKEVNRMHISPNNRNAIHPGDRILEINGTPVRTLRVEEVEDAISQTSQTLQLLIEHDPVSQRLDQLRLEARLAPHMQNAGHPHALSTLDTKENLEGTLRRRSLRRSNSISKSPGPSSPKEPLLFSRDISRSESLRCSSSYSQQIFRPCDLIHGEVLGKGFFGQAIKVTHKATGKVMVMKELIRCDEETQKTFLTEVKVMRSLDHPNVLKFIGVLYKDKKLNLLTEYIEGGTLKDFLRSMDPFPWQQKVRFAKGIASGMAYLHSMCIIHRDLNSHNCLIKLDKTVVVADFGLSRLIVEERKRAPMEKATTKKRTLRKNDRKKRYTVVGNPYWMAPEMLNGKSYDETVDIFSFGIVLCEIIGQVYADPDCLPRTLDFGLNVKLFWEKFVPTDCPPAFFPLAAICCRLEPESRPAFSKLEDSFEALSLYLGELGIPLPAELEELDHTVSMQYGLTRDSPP
Chain of G protein-coupled receptor kinase 5 (Homo sapiens) (P34947 whole entry, looked up): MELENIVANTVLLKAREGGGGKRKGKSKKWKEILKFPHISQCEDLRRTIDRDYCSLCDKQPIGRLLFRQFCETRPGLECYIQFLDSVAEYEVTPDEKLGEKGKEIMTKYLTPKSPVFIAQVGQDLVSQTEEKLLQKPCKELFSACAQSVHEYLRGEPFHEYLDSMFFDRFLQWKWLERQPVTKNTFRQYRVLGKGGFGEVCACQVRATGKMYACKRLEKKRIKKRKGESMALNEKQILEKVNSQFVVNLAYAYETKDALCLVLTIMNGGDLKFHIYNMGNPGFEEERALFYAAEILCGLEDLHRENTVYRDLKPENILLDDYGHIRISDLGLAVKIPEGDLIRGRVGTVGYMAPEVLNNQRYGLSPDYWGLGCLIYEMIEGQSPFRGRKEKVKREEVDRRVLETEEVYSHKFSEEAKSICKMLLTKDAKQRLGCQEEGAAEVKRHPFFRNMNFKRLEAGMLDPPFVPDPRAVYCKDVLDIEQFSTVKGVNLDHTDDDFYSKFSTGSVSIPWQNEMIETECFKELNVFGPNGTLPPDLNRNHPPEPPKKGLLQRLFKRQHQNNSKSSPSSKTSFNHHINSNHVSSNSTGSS
Chain of Serine/threonine-protein kinase Chk2 (Homo sapiens) (O96017 whole entry): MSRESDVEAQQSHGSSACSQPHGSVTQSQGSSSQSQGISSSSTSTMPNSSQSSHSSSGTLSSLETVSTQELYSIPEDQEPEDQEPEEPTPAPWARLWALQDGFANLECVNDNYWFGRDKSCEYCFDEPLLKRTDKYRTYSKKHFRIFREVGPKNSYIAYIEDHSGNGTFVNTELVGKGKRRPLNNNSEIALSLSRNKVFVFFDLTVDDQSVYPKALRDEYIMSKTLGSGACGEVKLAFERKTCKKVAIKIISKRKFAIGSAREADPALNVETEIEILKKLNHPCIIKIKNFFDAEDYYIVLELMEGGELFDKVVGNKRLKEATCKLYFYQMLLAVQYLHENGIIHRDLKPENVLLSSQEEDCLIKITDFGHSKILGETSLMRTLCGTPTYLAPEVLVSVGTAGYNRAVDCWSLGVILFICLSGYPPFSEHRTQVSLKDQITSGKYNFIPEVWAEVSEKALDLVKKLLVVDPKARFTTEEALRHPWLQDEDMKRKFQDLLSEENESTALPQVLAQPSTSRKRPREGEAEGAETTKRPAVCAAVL

CN1CCN(c2cnc3c(C4CCN(C(=O)c5ccc(OC(F)(F)F)cc5N)CC4)ncnc3c2)CC1 [BAY-885]
inactive: [1] 92% | [2] 108% | [3] 107% | [4] 104% | [5] 107% | [6] 91% | [7] 85% | [8] 102% | [9] 120%
